From PubChem BioAssay AID2060496 (Molecular Pharmacology Branch, DTP, NCI, 2025)
pIC50: −log10 of the molar value.

Test system: 276233-004-R-J1-PDC complex spheroid viability
Experiment: Anticancer human tumor 276233-004-R-J1-PDC patient-derived colon adenocarcinoma cell line growth inhibition [GQUAD]
Conditions: for pIC50: curve of first compound; for viability, T/C: stronger effect = lower value
Outline: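 Viability of tumor cells grown as complex spheroids with endothelial and stromal cells, exposed to drug combinations. Top concentration at or near clinical Cmax (else 10 microM), diluted in half-log increments.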

[1] = second compound 0.0316 µM, first compound 0.0316 µM
[2] = second compound 0.0316 µM, first compound 0.316 µM
[3] = second compound 0.1 µM, first compound 0.0316 µM
[4] = second compound 0.1 µM, first compound 0.316 µM
[5] = second compound 0.316 µM, first compound 0.0316 µM
[6] = second compound 0.316 µM, first compound 0.316 µM
[7] = second compound 1 µM, first compound 0.0316 µM
[8] = second compound 1 µM, first compound 0.316 µM
[9] = second compound 3.16 µM, first compound 0.0316 µM
[10] = second compound 3.16 µM, first compound 0.316 µM
[11] = second compound 10 µM, first compound 0.0316 µM
[12] = second compound 10 µM, first compound 0.316 µM
[13] = second compound 0.0316 µM, first compound 0.1 µM
[14] = second compound 0.0316 µM, first compound 1 µM
[15] = second compound 0.0316 µM, first compound 3.16 µM
[16] = second compound 0.0316 µM, first compound 10 µM
[17] = second compound 0.1 µM, first compound 0.1 µM
[18] = second compound 0.1 µM, first compound 1 µM
[19] = second compound 0.1 µM, first compound 3.16 µM
[20] = second compound 0.1 µM, first compound 10 µM
[21] = second compound 0.316 µM, first compound 0.1 µM
[22] = second compound 0.316 µM, first compound 1 µM
[23] = second compound 0.316 µM, first compound 3.16 µM
[24] = second compound 0.316 µM, first compound 10 µM
[25] = second compound 1 µM, first compound 0.1 µM
[26] = second compound 1 µM, first compound 1 µM
[27] = second compound 1 µM, first compound 3.16 µM
[28] = second compound 1 µM, first compound 10 µM
[29] = second compound 3.16 µM, first compound 0.1 µM
[30] = second compound 3.16 µM, first compound 1 µM
[31] = second compound 3.16 µM, first compound 3.16 µM
[32] = second compound 3.16 µM, first compound 10 µM
[33] = second compound 10 µM, first compound 0.1 µM
[34] = second compound 10 µM, first compound 1 µM
[35] = second compound 10 µM, first compound 3.16 µM
[36] = second compound 10 µM, first compound 10 µM
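Further: spheroids exposed to drugs for seven days.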
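Wherever viability, T/C is given: 100% = DMSO vehicle control viability.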

In the case of `Cn1ncnc1[C@H]1c2n[nH]c(=O)c3cc(F)cc(c23)N[C@@H]1c1ccc(F)cc1` + Cc1[nH]c2ccc(F)cc2c1-c1nc2c3cccnc3c3ncccc3c2[nH]1, the pIC50 (second compound 0.0316 µM) was < 6.50, the pIC50 (second compound 0.1 µM) was < 6.50 and the pIC50 (second compound 0.316 µM) was < 6.50. The pIC50 (second compound 1 µM) was < 6.50, the pIC50 (second compound 3.16 µM) was < 6.50 and the pIC50 (second compound 10 µM) was > 9.00. For the same compound, the viability, T/C (second compound 0.0316 µM, first compound 0.000999 µM) was 89%, the viability, T/C (second compound 0.0316 µM, first compound 0.00316 µM) was 99.2% and the viability, T/C (second compound 0.0316 µM, first compound 0.00999 µM) was 104%. It also gave a viability, T/C [1] of 94.1%, a viability, T/C (second compound 0.0316 µM, first compound 0.0999 µM) of 95.6% and a viability, T/C [2] of 90.7%. For the same compound, the viability, T/C (second compound 0.1 µM, first compound 0.000999 µM) was 91.2%, the viability, T/C (second compound 0.1 µM, first compound 0.00316 µM) was 97.8% and the viability, T/C (second compound 0.1 µM, first compound 0.00999 µM) was 99.9%. The viability, T/C [3] was 88.5%, the viability, T/C (second compound 0.1 µM, first compound 0.0999 µM) was 98% and the viability, T/C [4] was 94.8%. The viability, T/C (second compound 0.316 µM, first compound 0.000999 µM) was 94.7%, the viability, T/C (second compound 0.316 µM, first compound 0.00316 µM) was 79.9% and the viability, T/C (second compound 0.316 µM, first compound 0.00999 µM) was 86.6%. It also gave a viability, T/C [5] of 99.2%, a viability, T/C (second compound 0.316 µM, first compound 0.0999 µM) of 100% and a viability, T/C [6] of 93%. It also gave a viability, T/C (second compound 1 µM, first compound 0.000999 µM) of 63.5%, a viability, T/C (second compound 1 µM, first compound 0.00316 µM) of 66.6% and a viability, T/C (second compound 1 µM, first compound 0.00999 µM) of 78.7%. It also gave a viability, T/C [7] of 72.7%, a viability, T/C (second compound 1 µM, first compound 0.0999 µM) of 70.6% and a viability, T/C [8] of 84.7%. The viability, T/C (second compound 3.16 µM, first compound 0.000999 µM) was 56.3%, the viability, T/C (second compound 3.16 µM, first compound 0.00316 µM) was 66.5% and the viability, T/C (second compound 3.16 µM, first compound 0.00999 µM) was 49.2%. For the same compound, the viability, T/C [9] was 54.2%, the viability, T/C (second compound 3.16 µM, first compound 0.0999 µM) was 60.4% and the viability, T/C [10] was 57.4%. The viability, T/C (second compound 10 µM, first compound 0.000999 µM) was 50.3%, the viability, T/C (second compound 10 µM, first compound 0.00316 µM) was 47.3% and the viability, T/C (second compound 10 µM, first compound 0.00999 µM) was 50.5%. For the same compound, the viability, T/C [11] was 62.7%, the viability, T/C (second compound 10 µM, first compound 0.0999 µM) was 62% and the viability, T/C [12] was 44.2%.

`CCCS(=O)(=O)Nc1ccc(F)c(C(=O)c2c[nH]c3ncc(-c4ccc(Cl)cc4)cc23)c1F` + Cc1[nH]c2ccc(F)cc2c1-c1nc2c3cccnc3c3ncccc3c2[nH]1 was tested, and the pIC50 (second compound 0.0316 µM) was < 5.00, the pIC50 (second compound 0.1 µM) was < 5.00 and the pIC50 (second compound 0.316 µM) was < 5.00. For the same compound, the pIC50 (second compound 1 µM) was > 7.50, the pIC50 (second compound 3.16 µM) was > 7.50 and the pIC50 (second compound 10 µM) was > 7.50. It also gave a viability, T/C [1] of 99.6%, a viability, T/C [13] of 82.8% and a viability, T/C [2] of 83.3%. The viability, T/C [14] was 101%, the viability, T/C [15] was 78.8% and the viability, T/C [16] was 50.8%. For the same compound, the viability, T/C [3] was 95.7%, the viability, T/C [17] was 81.7% and the viability, T/C [4] was 80.7%. It also gave a viability, T/C [18] of 78.5%, a viability, T/C [19] of 59.7% and a viability, T/C [20] of 61.2%. The viability, T/C [5] was 74.3%, the viability, T/C [21] was 71.2% and the viability, T/C [6] was 63.9%. It also gave a viability, T/C [22] of 65.3%, a viability, T/C [23] of 55% and a viability, T/C [24] of 61.9%. For the same compound, the viability, T/C [7] was 52.9%, the viability, T/C [25] was 41.3% and the viability, T/C [8] was 44.2%. The viability, T/C [26] was 50.1%, the viability, T/C [27] was 61.9% and the viability, T/C [28] was 37.7%. For the same compound, the viability, T/C [9] was 18.2%, the viability, T/C [29] was 12.9% and the viability, T/C [10] was 27.3%. It also gave a viability, T/C [30] of 15.5%, a viability, T/C [31] of 20.9% and a viability, T/C [32] of 13.1%. For the same compound, the viability, T/C [11] was 31.9%, the viability, T/C [33] was 35.4% and the viability, T/C [12] was 42.6%. The viability, T/C [34] was 30.3%, the viability, T/C [35] was 41.4% and the viability, T/C [36] was 27.5%.

For `CC1COCCN1c1cc(C2(O)CC3CCC(C2)O3)c2cnn(-c3ccn[nH]3)c2n1` (stereo unspecified) + Cc1[nH]c2ccc(F)cc2c1-c1nc2c3cccnc3c3ncccc3c2[nH]1, the pIC50 (second compound 0.0316 µM) was < 5.00, the pIC50 (second compound 0.1 µM) was 5.51 and the pIC50 (second compound 0.316 µM) was 5.58. The pIC50 (second compound 1 µM) was 6.18, the pIC50 (second compound 3.16 µM) was 7.15 and the pIC50 (second compound 10 µM) was > 7.50. It also gave a viability, T/C [1] of 91%, a viability, T/C [13] of 68% and a viability, T/C [2] of 79%. It also gave a viability, T/C [14] of 72.5%, a viability, T/C [15] of 55.6% and a viability, T/C [16] of 51%. The viability, T/C [3] was 74.6%, the viability, T/C [17] was 87% and the viability, T/C [4] was 74.8%. For the same compound, the viability, T/C [18] was 60.4%, the viability, T/C [19] was 52.8% and the viability, T/C [20] was 44.5%. The viability, T/C [5] was 87.2%, the viability, T/C [21] was 76.1% and the viability, T/C [6] was 57.4%. For the same compound, the viability, T/C [22] was 62.7%, the viability, T/C [23] was 54% and the viability, T/C [24] was 36%. For the same compound, the viability, T/C [7] was 60.4%, the viability, T/C [25] was 70% and the viability, T/C [8] was 65.6%. It also gave a viability, T/C [26] of 41.7%, a viability, T/C [27] of 39.6% and a viability, T/C [28] of 27.9%. The viability, T/C [9] was 51.4%, the viability, T/C [29] was 50.9% and the viability, T/C [10] was 43.2%. It also gave a viability, T/C [30] of 36%, a viability, T/C [31] of 33.2% and a viability, T/C [32] of 26.2%. The viability, T/C [11] was 46.3%, the viability, T/C [33] was 44.3% and the viability, T/C [12] was 42.5%. It also gave a viability, T/C [34] of 35.9%, a viability, T/C [35] of 26.7% and a viability, T/C [36] of 21.6%.
